{"source": "patent US20100048403A1", "about": "“Method of inducing virus tolerance of plants” (BASF SE, priority 2007, published 2010)", "test_system": "Cucumber Green Mottle Mosaic Virus (CGMMV)", "assay": "Symptom expression of CGMMV in cucumbers treated 7 days before mechanical inoculation", "type": "in vivo", "details": "cucumber plants, 500 g product in 200 litres water sprayed to run-off 7 days before inoculation", "procedure": "The experiment tested the effect of boscalid (as Filan®) on the symptom expression of CGMMV in cucumbers. Cucumber plants were treated with Filan or water 7 days before mechanical inoculation with CGMMV. Filan® was applied at 500 g in 200 litres water. Sprays were applied as a fine spray to run-off.\nThe experiment consisted of 5 plants per each treatment, with three replicates arranged randomly after fungicide treatment, but before inoculation. Plants were then inoculated in situ. Plants were mechanically inoculated at the 4-6 true leaf stage. Cucumber leaves showing symptoms and confirmed by CSL as infected with CGMMV were used as the source of inoculum. Several infected leaves were crushed in a plastic bag with a small amount of distilled water to extract the sap. This sap was then gently rubbed onto the second lowest green leaf of each plant in the experiment. Symptoms of CGMMV were assessed at intervals following inoculation."}
{"smiles": "O=C(Nc1ccccc1-c1ccc(Cl)cc1)c1cccnc1Cl", "note": "[Boscalid, boscalid]", "values": [{"measurement": "Number of leaves with symtoms, 8 days after inoculation (Average)", "setting": "8 days after inoculation, untreated 2.4", "value": 0.8}, {"measurement": "Number of leaves with symtoms, 33 days after inoculation (Average)", "setting": "33 days after inoculation, untreated 7.4", "value": 4.4}]}
